Measurements taken from PubChem BioAssay AID2060883 (Molecular Pharmacology Branch, DTP, NCI, 2025).
Blank lines part the entries; values can stand above or below the compound they belong to.

System: 843782-103-R-J1-PDC complex spheroid viability
Test: Anticancer human tumor 843782-103-R-J1-PDC patient-derived lung adenocarcinoma cell line growth inhibition [RAS]
Settings: for IC50: curve of first compound; for viability, T/C: stronger effect = lower value
Method in brief: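 Multi-cell-type spheroids: tumor cells plus HUVEC endothelial cells and mesenchymal stem cells. RAS-pathway inhibitors were combined with targeted agents, each dosed in half-log steps down from clinical Cmax, or from 10 microM when Cmax was unknown.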

[1] = second compound 0.000949 µM, first compound 0.0316 µM
[2] = second compound 0.000949 µM, first compound 0.1 µM
[3] = second compound 0.000949 µM, first compound 0.316 µM
[4] = second compound 0.000949 µM, first compound 1 µM
[5] = second compound 0.000949 µM, first compound 3.16 µM
[6] = second compound 0.000949 µM, first compound 10 µM
[7] = second compound 0.003 µM, first compound 0.0316 µM
[8] = second compound 0.003 µM, first compound 0.1 µM
[9] = second compound 0.003 µM, first compound 0.316 µM
[10] = second compound 0.003 µM, first compound 1 µM
[11] = second compound 0.003 µM, first compound 3.16 µM
[12] = second compound 0.003 µM, first compound 10 µM
[13] = second compound 0.00949 µM, first compound 0.0316 µM
[14] = second compound 0.00949 µM, first compound 0.1 µM
[15] = second compound 0.00949 µM, first compound 0.316 µM
[16] = second compound 0.00949 µM, first compound 1 µM
[17] = second compound 0.00949 µM, first compound 3.16 µM
[18] = second compound 0.00949 µM, first compound 10 µM
[19] = second compound 0.03 µM, first compound 0.0316 µM
[20] = second compound 0.03 µM, first compound 0.1 µM
[21] = second compound 0.03 µM, first compound 0.316 µM
[22] = second compound 0.03 µM, first compound 1 µM
[23] = second compound 0.03 µM, first compound 3.16 µM
[24] = second compound 0.03 µM, first compound 10 µM
[25] = second compound 0.0949 µM, first compound 0.0316 µM
[26] = second compound 0.0949 µM, first compound 0.1 µM
[27] = second compound 0.0949 µM, first compound 0.316 µM
[28] = second compound 0.0949 µM, first compound 1 µM
[29] = second compound 0.0949 µM, first compound 3.16 µM
[30] = second compound 0.0949 µM, first compound 10 µM
[31] = second compound 0.3 µM, first compound 0.0316 µM
[32] = second compound 0.3 µM, first compound 0.1 µM
[33] = second compound 0.3 µM, first compound 0.316 µM
[34] = second compound 0.3 µM, first compound 1 µM
[35] = second compound 0.3 µM, first compound 3.16 µM
[36] = second compound 0.3 µM, first compound 10 µM
[37] = second compound 0.0316 µM, first compound 0.0316 µM
[38] = second compound 0.0316 µM, first compound 0.1 µM
[39] = second compound 0.0316 µM, first compound 0.316 µM
[40] = second compound 0.0316 µM, first compound 1 µM
[41] = second compound 0.0316 µM, first compound 3.16 µM
[42] = second compound 0.0316 µM, first compound 10 µM
[43] = second compound 0.1 µM, first compound 0.0316 µM
[44] = second compound 0.1 µM, first compound 0.1 µM
[45] = second compound 0.1 µM, first compound 0.316 µM
[46] = second compound 0.1 µM, first compound 1 µM
[47] = second compound 0.1 µM, first compound 3.16 µM
[48] = second compound 0.1 µM, first compound 10 µM
[49] = second compound 0.316 µM, first compound 0.0316 µM
[50] = second compound 0.316 µM, first compound 0.1 µM
[51] = second compound 0.316 µM, first compound 0.316 µM
[52] = second compound 0.316 µM, first compound 1 µM
[53] = second compound 0.316 µM, first compound 3.16 µM
[54] = second compound 0.316 µM, first compound 10 µM
[55] = second compound 1 µM, first compound 0.0316 µM
[56] = second compound 1 µM, first compound 0.1 µM
[57] = second compound 1 µM, first compound 0.316 µM
[58] = second compound 1 µM, first compound 1 µM
[59] = second compound 1 µM, first compound 3.16 µM
[60] = second compound 1 µM, first compound 10 µM
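Further: viability read after seven days of compound exposure.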

IC50 (second compound 0.000949 µM): 591 nM
IC50 (second compound 0.003 µM): 406 nM
IC50 (second compound 0.00949 µM): < 31.6 nM
IC50 (second compound 0.03 µM): < 31.6 nM
IC50 (second compound 0.0949 µM): < 31.6 nM
IC50 (second compound 0.3 µM): < 31.6 nM
Structure (SMILES): CCC(CC)c1cc(NC2CCC(N)C2)n2nccc2n1 (stereo not drawn) + CCn1c(-c2cc(N3CCN(C)CC3)cnc2C(C)OC)c2c3cc(ccc31)-c1csc(n1)CC(NC(=O)C1CC1C)C(=O)N1CCCC(N1)C(=O)OCC(C)(C)C2
viability, T/C [1]: 75.2%
viability, T/C [2]: 76.5%
viability, T/C [3]: 72.7%
viability, T/C [4]: 30.7%
viability, T/C [5]: 0.47%
viability, T/C [6]: 0.37%
viability, T/C [7]: 53.5%
viability, T/C [8]: 53.9%
viability, T/C [9]: 58.1%
viability, T/C [10]: 31.4%
viability, T/C [11]: 0.26%
viability, T/C [12]: 0.35%
viability, T/C [13]: 30.6%
viability, T/C [14]: 34.3%
viability, T/C [15]: 36.8%
viability, T/C [16]: 17.1%
viability, T/C [17]: 0.17%
viability, T/C [18]: 0.29%
viability, T/C [19]: 21.9%
viability, T/C [20]: 19%
viability, T/C [21]: 21.2%
viability, T/C [22]: 15.5%
viability, T/C [23]: 0.09%
viability, T/C [24]: 0.27%
viability, T/C [25]: 15.7%
viability, T/C [26]: 15%
viability, T/C [27]: 16.8%
viability, T/C [28]: 14.7%
viability, T/C [29]: 0.52%
viability, T/C [30]: 0.34%
viability, T/C [31]: 15%
viability, T/C [32]: 14.2%
viability, T/C [33]: 14.8%
viability, T/C [34]: 13.4%
viability, T/C [35]: 0.25%
viability, T/C [36]: 0.53%

IC50 (second compound 0.000949 µM): 55 nM
IC50 (second compound 0.003 µM): 50.4 nM
IC50 (second compound 0.00949 µM): 53.8 nM
IC50 (second compound 0.03 µM): 44.4 nM
IC50 (second compound 0.0949 µM): 45.3 nM
IC50 (second compound 0.3 µM): 36.9 nM
Structure (SMILES): Cc1nc(N2CCC3(CC2)COC(C)C3N)c(CO)nc1Sc1ccnc(N)c1Cl (stereo not drawn) + CCn1c(-c2cccnc2C(C)OC)c2c3cc(ccc31)N1CCOC(CC(NC(=O)C(C(C)C)N(C)C(=O)C3(F)CCN(C(=O)C#CC(C)(C)N(C)C)CC3)C(=O)N3CCCC(N3)C(=O)OCC(C)(C)C2)C1
viability, T/C [1]: 57.4%
viability, T/C [2]: 43.4%
viability, T/C [3]: 31.3%
viability, T/C [4]: 21%
viability, T/C [5]: 20.8%
viability, T/C [6]: 17.4%
viability, T/C [7]: 55.1%
viability, T/C [8]: 42%
viability, T/C [9]: 31.6%
viability, T/C [10]: 22.2%
viability, T/C [11]: 17.3%
viability, T/C [12]: 20.6%
viability, T/C [13]: 55.1%
viability, T/C [14]: 44.2%
viability, T/C [15]: 28.6%
viability, T/C [16]: 21.3%
viability, T/C [17]: 23.1%
viability, T/C [18]: 16.4%
viability, T/C [19]: 53.8%
viability, T/C [20]: 40.2%
viability, T/C [21]: 34.5%
viability, T/C [22]: 27.6%
viability, T/C [23]: 18.6%
viability, T/C [24]: 17.8%
viability, T/C [25]: 55.4%
viability, T/C [26]: 37%
viability, T/C [27]: 34.3%
viability, T/C [28]: 24.1%
viability, T/C [29]: 19.4%
viability, T/C [30]: 23.6%
viability, T/C [31]: 51.3%
viability, T/C [32]: 42.1%
viability, T/C [33]: 31.6%
viability, T/C [34]: 22.6%
viability, T/C [35]: 20.8%
viability, T/C [36]: 21.4%

IC50 (second compound 0.00316 µM): 49.3 nM
IC50 (second compound 0.01 µM): < 31.6 nM
IC50 (second compound 0.0316 µM): < 31.6 nM
IC50 (second compound 0.1 µM): 39.9 nM
IC50 (second compound 0.316 µM): 44.1 nM
IC50 (second compound 1 µM): 37.2 nM
Structure (SMILES): NC1c2ccccc2OC12CCN(c1cnc3c(N4CCCc5ncccc54)n[nH]c3n1)CC2 (stereo not drawn) + C=CC(=O)N1CCN(c2nc(OCC3CCCN3C)nc3c(F)c(-c4nc(N)cc(C)c4C(F)(F)F)c(Cl)cc23)C(C)C1
viability, T/C (second compound 0.00316 µM, first compound 0.0316 µM): 58.4%
viability, T/C (second compound 0.00316 µM, first compound 0.1 µM): 35.8%
viability, T/C (second compound 0.00316 µM, first compound 0.316 µM): 30.5%
viability, T/C (second compound 0.00316 µM, first compound 1 µM): 23.7%
viability, T/C (second compound 0.00316 µM, first compound 3.16 µM): 30.8%
viability, T/C (second compound 0.00316 µM, first compound 10 µM): 16.8%
viability, T/C (second compound 0.01 µM, first compound 0.0316 µM): 49.1%
viability, T/C (second compound 0.01 µM, first compound 0.1 µM): 35.5%
viability, T/C (second compound 0.01 µM, first compound 0.316 µM): 28.5%
viability, T/C (second compound 0.01 µM, first compound 1 µM): 22.8%
viability, T/C (second compound 0.01 µM, first compound 3.16 µM): 20.3%
viability, T/C (second compound 0.01 µM, first compound 10 µM): 20.2%
viability, T/C [37]: 44.9%
viability, T/C [38]: 34.4%
viability, T/C [39]: 30.4%
viability, T/C [40]: 25.6%
viability, T/C [41]: 24.7%
viability, T/C [42]: 21.3%
viability, T/C [43]: 55%
viability, T/C [44]: 34%
viability, T/C [45]: 28.2%
viability, T/C [46]: 26.2%
viability, T/C [47]: 22.9%
viability, T/C [48]: 15%
viability, T/C [49]: 54.4%
viability, T/C [50]: 39.8%
viability, T/C [51]: 29.7%
viability, T/C [52]: 23.1%
viability, T/C [53]: 20.9%
viability, T/C [54]: 22.1%
viability, T/C [55]: 52.1%
viability, T/C [56]: 38.3%
viability, T/C [57]: 25.2%
viability, T/C [58]: 25.4%
viability, T/C [59]: 25.3%
viability, T/C [60]: 18%

IC50 (second compound 0.0316 µM): > 10000 nM
IC50 (second compound 0.1 µM): > 10000 nM
IC50 (second compound 0.316 µM): > 10000 nM
IC50 (second compound 1 µM): > 10000 nM
IC50 (second compound 3.16 µM): > 10000 nM
IC50 (second compound 10 µM): > 10000 nM
Structure (SMILES): C[C@@H](NC(=O)c1ncnc(N)c1Cl)c1ncc(C(=O)Nc2cc(C(F)(F)F)c(Cl)cn2)s1 + C#Cc1c(F)ccc2cc(O)cc(-c3ncc4c(N5CC6CCC(C5)N6)nc(OCC56CCCN5CC(F)C6)nc4c3F)c12
viability, T/C [37]: 114%
viability, T/C [38]: 97.2%
viability, T/C [39]: 99.9%
viability, T/C [40]: 101%
viability, T/C [41]: 112%
viability, T/C [42]: 101%
viability, T/C [43]: 112%
viability, T/C [44]: 105%
viability, T/C [45]: 98.6%
viability, T/C [46]: 101%
viability, T/C [47]: 101%
viability, T/C [48]: 105%
viability, T/C [49]: 110%
viability, T/C [50]: 104%
viability, T/C [51]: 103%
viability, T/C [52]: 102%
viability, T/C [53]: 106%
viability, T/C [54]: 108%
viability, T/C [55]: 101%
viability, T/C [56]: 100%
viability, T/C [57]: 105%
viability, T/C [58]: 101%
viability, T/C [59]: 97.2%
viability, T/C [60]: 95.9%
viability, T/C (second compound 3.16 µM, first compound 0.0316 µM): 86.9%
viability, T/C (second compound 3.16 µM, first compound 0.1 µM): 91%
viability, T/C (second compound 3.16 µM, first compound 0.316 µM): 90.5%
viability, T/C (second compound 3.16 µM, first compound 1 µM): 92.7%
viability, T/C (second compound 3.16 µM, first compound 3.16 µM): 80.9%
viability, T/C (second compound 3.16 µM, first compound 10 µM): 87.2%
viability, T/C (second compound 10 µM, first compound 0.0316 µM): 73.3%
viability, T/C (second compound 10 µM, first compound 0.1 µM): 84.3%
viability, T/C (second compound 10 µM, first compound 0.316 µM): 64.8%
viability, T/C (second compound 10 µM, first compound 1 µM): 48.9%
viability, T/C (second compound 10 µM, first compound 3.16 µM): 54.9%
viability, T/C (second compound 10 µM, first compound 10 µM): 49.1%
